Test results reported in patent US9981944B2, “GDF-8 inhibitors” (Rigel Pharmaceuticals, Inc., priority 2015, dated 2018).

Tests used:
HIS-TGFβR2 WT = HIS-TGFβR2 WT (Homo sapiens (Human), UniProt P37173); experiment: HTRF probe displacement assay, HIS-TGFβR2 WT; format: binding; details: 1 nM HIS-TGFβR2 WT, 1 hour at room temperature, read-out: TGFBR2WT IC50
Description: (§1) Compounds were dissolved at 10 mM in dimethylsulfoxide (DMSO) and evaluated at eleven concentrations. IC50 values were derived by non-linear regression analysis.

HIS-TGFβR1 T204D = HIS-TGFβR1 T204D (Homo sapiens (Human), UniProt P36897, T204D); experiment: HTRF probe displacement assay, HIS-TGFβR1 T204D; format: binding; details: 1 nM HIS-TGFβR1 T204D, 1 hour at room temperature, read-out: TGFBR1T204D IC50
Sequence of HIS-TGFβR1 T204D (P36897 34-503 T204D): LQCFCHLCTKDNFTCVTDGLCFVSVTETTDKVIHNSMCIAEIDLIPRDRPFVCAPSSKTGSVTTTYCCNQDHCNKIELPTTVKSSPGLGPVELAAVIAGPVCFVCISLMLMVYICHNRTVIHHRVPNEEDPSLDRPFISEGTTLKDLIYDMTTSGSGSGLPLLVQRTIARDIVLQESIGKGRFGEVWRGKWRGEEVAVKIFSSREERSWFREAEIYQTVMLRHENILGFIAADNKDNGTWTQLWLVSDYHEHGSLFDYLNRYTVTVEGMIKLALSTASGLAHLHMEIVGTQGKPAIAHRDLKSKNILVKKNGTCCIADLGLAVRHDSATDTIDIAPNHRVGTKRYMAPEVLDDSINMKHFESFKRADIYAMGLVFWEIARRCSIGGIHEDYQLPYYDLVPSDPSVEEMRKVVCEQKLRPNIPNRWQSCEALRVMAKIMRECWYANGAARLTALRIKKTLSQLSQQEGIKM
Description: as §1

Sequence of HIS-TGFβR2 WT (P37173 23-567): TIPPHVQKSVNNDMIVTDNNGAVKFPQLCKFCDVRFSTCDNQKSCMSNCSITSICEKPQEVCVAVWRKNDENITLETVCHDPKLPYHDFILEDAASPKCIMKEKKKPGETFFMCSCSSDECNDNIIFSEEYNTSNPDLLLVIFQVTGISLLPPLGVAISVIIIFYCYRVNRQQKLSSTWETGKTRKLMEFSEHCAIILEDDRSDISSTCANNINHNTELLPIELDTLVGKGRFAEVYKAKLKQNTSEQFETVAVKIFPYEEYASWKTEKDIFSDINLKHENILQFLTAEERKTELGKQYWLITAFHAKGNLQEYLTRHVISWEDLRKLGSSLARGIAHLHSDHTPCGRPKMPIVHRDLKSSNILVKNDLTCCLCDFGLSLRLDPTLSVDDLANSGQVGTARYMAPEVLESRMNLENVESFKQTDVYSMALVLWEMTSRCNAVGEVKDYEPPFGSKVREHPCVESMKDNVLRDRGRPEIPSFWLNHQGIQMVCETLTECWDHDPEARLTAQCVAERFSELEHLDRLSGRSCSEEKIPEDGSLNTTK

Row | IC50 (HIS-TGFβR2 WT) [nM] | IC50 (HIS-TGFβR1 T204D) [nM] | Compound
1 | > 15000 | 716 | CC(=O)Nc1ccnc(-c2cccc(C)n2)c1-c1ccc2ncc(C(N)=O)n2c1 [Compound 102, 6-(4-acetamido-6′-methyl-[2,2′-bipyridin]-3-yl)imidazo[1,2-a]pyridine-3-carboxamide]
2 | > 15000 | 16 | FC(F)(F)c1cccc(-c2ncccc2-c2ccc3nccnc3c2)n1 [Compound 114, 6-(6′-(trifluoromethyl)-[2,2′-bipyridin]-3-yl)quinoxaline]
3 | > 15000 | 2 | Nc1ncnc2ccc(-c3cccnc3-c3cccc(C4CC4)n3)cc12 [Compound 111]
4 | > 15000 | 107 | O=C(O)c1cnn2ccc(-c3cccnc3-c3cccc(C(F)F)n3)nc12 [Compound 135, 5-(6′-(difluoromethyl)-[2,2′-bipyridin]-3-yl)pyrazolo[1,5-a]pyrimidine-3-carboxylic acid]
5 | > 15000 | 14 | CCOC(=O)c1cnn2ccc(-c3cccnc3-c3ccc(F)c(C)n3)nc12 [Compound 130, ethyl 5-(5′-fluoro-6′-methyl-[2,2′-bipyridin]-3-yl)pyrazolo[1,5-a]pyrimidine-3-carboxylate]
6 | > 15000 | 3360 | Cc1cccc(-c2nc(C(F)(F)F)ccc2-c2ccc3ncc(C#N)n3c2)n1 [Compound 89, 6-(6′-methyl-6-(trifluoromethyl)-[2,2′-bipyridin]-3-yl)imidazo[1,2-a]pyridine-3-carbonitrile]
7 | > 15000 | 12 | Cc1nc(-c2ncccc2-c2ccc3nccnc3c2)ccc1F [Compound 112, 6-(5′-fluoro-6′-methyl-[2,2′-bipyridin]-3-yl)quinoxaline]
8 | > 15000 | 4 | Cc1nc(-c2ncccc2-c2ccc3ncnc(N)c3n2)ccc1F [Compound 103, 6-(5′-fluoro-6′-methyl-[2,2′-bipyridin]-3-yl)pyrido[3,2-d]pyrimidin-4-amine]

The remaining lines, values behind:

Row | Compound | IC50 (HIS-TGFβR2 WT) [nM] | IC50 (HIS-TGFβR1 T204D) [nM]
9 | Cc1cccc(-c2ncc(F)cc2-c2ccc3ncc(C#N)n3c2)n1 [Compound 81, 6-(5-fluoro-6′-methyl-[2,2′-bipyridin]-3-yl)imidazo[1,2-a]pyridine-3-carbonitrile] | > 15000 | 16
10 | NC(=O)c1cnc2ccc(-c3cccnc3-c3cccc(C4CC4)n3)cn12 [Compound 35, 6-(6′-cyclopropyl-[2,2′-bipyridin]-3-yl)imidazo[1,2-a]pyridine-3-carboxamide] | > 15000 | 1
11 | Cc1cc(C)nc(-c2ncccc2-c2ccc3ncc(C(N)=O)n3c2)c1 [Compound 42, 6-(4′,6′-dimethyl-[2,2′-bipyridin]-3-yl)imidazo[1,2-a]pyridine-3-carboxamide] | > 15000 | 21
12 | Cc1cccc(-c2ncccc2-c2ccc3ncc(NC(=O)C(F)(F)F)n3c2)n1 [Compound 66, 2,2,2-trifluoro-N-(6-(6′-methyl-[2,2′-bipyridin]-3-yl)imidazo[1,2-a]pyridin-3-yl)acetamide] | > 15000 | 37
13 | N#Cc1cnc2ccc(-c3cccnc3-c3cccc(OCc4ccccc4)n3)cn12 [Compound 38, 6-(6′-(benzyloxy)-[2,2′-bipyridin]-3-yl)imidazo[1,2-a]pyridine-3-carbonitrile] | > 15000 | 1920
14 | CC(C)c1cccc(-c2ncccc2-c2ccc3ncc(C#N)n3n2)n1 [Compound 63, 6-(6′-isopropyl-[2,2′-bipyridin]-3-yl)imidazo[1,2-b]pyridazine-3-carbonitrile] | > 15000 | 1950
15 | COC(=O)c1ccc(-c2ncccc2-c2ccc3ncc(C#N)n3c2)nc1 [Compound 25, methyl 3′-(3-cyanoimidazo[1,2-a]pyridin-6-yl)-[2,2′-bipyridine]-5-carboxylate] | > 15000 | 4480
16 | Cc1cccc(-c2ncccc2-c2ccc3ncc(C(=O)NC4CC4)n3n2)n1 [Compound 75, N-cyclopropyl-6-(6′-methyl-[2,2′-bipyridin]-3-yl)imidazo[1,2-b]pyridazine-3-carboxamide] | > 15000 | 25
